From ChEMBL document CHEMBL5344424, “3-Hydroxypyridin-4(1H)-one Derivatives as pqs Quorum Sensing Inhibitors Attenuate Virulence and Reduce Antibiotic Resistance in Pseudomonas aeruginosa” (J Med Chem, 2023)
Active and inactive are the calls of the source. The rule behind the calls is not given here.

What was measured:
[1] = system: Pseudomonas aeruginosa; assay: Antivirulence activity against Pseudomonas aeruginosa clinical isolate 1121 assessed as reduction of pyocyanin production at 10 uM incubated for 24 hrs by optical density based analysis relative to control; format: functional; design: scale not given: the % may be the effect or the level left
[2] = system: Pseudomonas aeruginosa; assay: Anti-motility activity against Pseudomonas aeruginosa PAO1 assessed as reduction in swarming incubated for 16 hrs by crystal violet staining analysis; format: functional, organism-based
[3] = system: Pseudomonas aeruginosa; assay: Synergistic antibacterial activity against Pseudomonas aeruginosa clinical isolate 1121 assessed as reduction in bacterial viability at 10 uM incubated for 24 hrs in presence of tobramycin at 1/2 to 1/8 times of MIC; format: functional, organism-based
[4] = Binding affinity to recombinant PqsR LBD (94 to 332 residues) (unknown origin) expressed in Escherichia coli BL21 (DE3) assessed as dissociation constant by isothermal titration calorimetry
[5] = system: Pseudomonas aeruginosa; assay: Inhibition of iron homeostasis in Pseudomonas aeruginosa PAO1 assessed as decrease in pyoverdine production at 5 to 20 uM incubated for 24 hrs by fluorescence based microplate reader analysis; format: functional, organism-based; details: dose 5-20 µM
[6] = system: Pseudomonas aeruginosa; assay: Synergistic antibacterial activity against Pseudomonas aeruginosa PAO1 infected in Caenorhabditis elegans assessed as worm survival rate at 10 uM incubated for 72 hrs in presence of ciprofloxacin by bright-field microscopy relative to control; format: functional
[7] = system: Pseudomonas aeruginosa; assay: Antibacterial activity against Pseudomonas aeruginosa PAO1 infected in Caenorhabditis elegans assessed as worm survival rate at 0.125 ug/ml incubated for 72 hrs by bright-field microscopy relative to control; format: functional
[8] = system: Pseudomonas aeruginosa; assay: Synergistic antibacterial activity against Pseudomonas aeruginosa clinical isolate 1129 assessed as reduction in bacterial viability at 10 uM incubated for 24 hrs in presence of ciprofloxacin at 1/2 to 1/8 times of MIC; format: functional, organism-based
[9] = system: Vero; assay: Cytotoxicity against African green monkey Vero cells at 100 uM incubated for 24 hrs by MTT assay; format: toxicity, cell-based; details: chlorocebus sabaeus
[10] = system: Vero; assay: Cytotoxicity against African green monkey Vero cells at 1.56 to 50 uM incubated for 24 hrs by MTT assay; format: toxicity, cell-based; details: chlorocebus sabaeus, dose 1.56-50 µM
[11] = system: Pseudomonas aeruginosa; assay: Synergistic antibacterial activity against Pseudomonas aeruginosa clinical isolate 1167 assessed as reduction in bacterial viability at 10 uM incubated for 24 hrs in presence of ciprofloxacin at 1/2 to 1/8 times of MIC; format: functional, organism-based
[12] = system: Pseudomonas aeruginosa; assay: Anti-motility activity against Pseudomonas aeruginosa PAO1 assessed as reduction in swimming incubated for 16 hrs by crystal violet staining analysis; format: functional, organism-based
[13] = system: Pseudomonas aeruginosa; assay: Antibacterial activity against Pseudomonas aeruginosa PAO1 assessed as inhibition of biofilm formation incubated for 24 hrs by crystal violet staining analysis; format: functional, organism-based
[14] = system: Pseudomonas aeruginosa; assay: Antibacterial activity against Pseudomonas aeruginosa PAO1 infected in Caenorhabditis elegans assessed as increase in worm survival by measuring survival time at 10 uM by bright-field microscopy; format: functional
[15] = Toxicity in Caenorhabditis elegans assessed as effect on survival at 100 uM incubated for 60 hrs by bright-field microscopy
[16] = Inhibition of quorum sensing system in Pseudomonas aeruginosa PAO1 assessed as inhibition of rhamnolipid production at 0.625 to 20 uM incubated for 24 hrs by optical density based analysis; details: dose 0.625-20 µM
[17] = system: Pseudomonas aeruginosa; assay: Anti-motility activity against Pseudomonas aeruginosa PAO1 assessed as reduction in twitching incubated for 16 hrs by crystal violet staining analysis; format: functional, organism-based
[18] = Inhibition of quorum sensing system in Pseudomonas aeruginosa PAO1 assessed as inhibition of elastase production at 10 uM incubated for 24 hrs by elastin-congo red dye based optical density based analysis relative to control
[19] = system: Pseudomonas aeruginosa; assay: Synergistic antibacterial activity against Pseudomonas aeruginosa PAO1 infected in Caenorhabditis elegans assessed as worm survival rate at 50 uM incubated for 72 hrs in presence of tobramycin by bright-field microscopy relative to control; format: functional
[20] = Metal chelating activity assessed as compound-Fe3+ complex formation by measuring fluorescence signal by fluorescence spectrophotometry
[21] = Inhibition of quorum sensing system in Pseudomonas aeruginosa PAO1 assessed as inhibition of pyocyanin production at 0.625 uM incubated for 24 hrs by optical density based analysis relative to control
[22] = system: Pseudomonas aeruginosa; assay: Synergistic antibacterial activity against Pseudomonas aeruginosa clinical isolate FB assessed as reduction in bacterial viability at 10 uM incubated for 24 hrs in presence of ciprofloxacin at 1/2 to 1/8 times of MIC; format: functional, organism-based
[23] = system: Pseudomonas aeruginosa; assay: Synergistic antibacterial activity against Pseudomonas aeruginosa clinical isolate FB assessed as reduction in bacterial viability at 10 uM incubated for 24 hrs in presence of tobramycin at 1/2 to 1/8 times of MIC; format: functional, organism-based
[24] = system: Pseudomonas aeruginosa; assay: Antibacterial activity against Pseudomonas aeruginosa PAO1 assessed as inhibition of biofilm formation at 50 uM incubated for 24 hrs by crystal violet staining analysis relative to control; format: functional; design: scale not given: the % may be the effect or the level left
[25] = Inhibition of quorum sensing system in Pseudomonas aeruginosa PAO1 assessed as inhibition of pyocyanin production at 10 uM incubated for 24 hrs by optical density based analysis relative to control
[26] = system: Pseudomonas aeruginosa; assay: Antivirulence activity against Pseudomonas aeruginosa clinical isolate FB assessed as reduction of pyocyanin production at 10 uM incubated for 24 hrs by optical density based analysis relative to control; format: functional; design: scale not given: the % may be the effect or the level left
[27] = Inhibition of quorum sensing system in Pseudomonas aeruginosa PAO1 transfected with GFP reporter assessed as decrease in GFP fluorescence expression at 1.25 to 10 uM incubated for 16 hrs by microplate reader assay; details: dose 1.25-10 µM
[28] = Inhibition of quorum sensing system in Pseudomonas aeruginosa PAO1 transfected with pqsA-gfp reporter assessed as decrease in GFP fluorescence expression incubated for 16 hrs by microplate reader assay
[29] = system: Pseudomonas aeruginosa; assay: Antivirulence activity against Pseudomonas aeruginosa PA14 assessed as reduction of pyocyanin production at 10 uM incubated for 24 hrs by optical density based analysis relative to control; format: functional; design: scale not given: the % may be the effect or the level left
[30] = system: Pseudomonas aeruginosa; assay: Synergistic antibacterial activity against Pseudomonas aeruginosa PAO1 assessed as reduction in bacterial viability at 10 uM incubated for 24 hrs in presence of tobramycin at 1/2 to 1/8 times of MIC; format: functional, organism-based
[31] = system: Pseudomonas aeruginosa; assay: Synergistic antibacterial activity against Pseudomonas aeruginosa PAO1 infected in Caenorhabditis elegans assessed as worm survival rate at 50 uM incubated for 72 hrs in presence of ciprofloxacin by bright-field microscopy relative to control; format: functional
[32] = system: Pseudomonas aeruginosa; assay: Synergistic antibacterial activity against Pseudomonas aeruginosa clinical isolate 1121 assessed as reduction in bacterial viability at 10 uM incubated for 24 hrs in presence of ciprofloxacin at 1/2 to 1/8 times of MIC; format: functional, organism-based
[33] = system: Pseudomonas aeruginosa; assay: Synergistic antibacterial activity against Pseudomonas aeruginosa PAO1 assessed as reduction in bacterial viability at 10 uM incubated for 24 hrs in presence of ciprofloxacin at 1/2 to 1/8 times of MIC; format: functional, organism-based
[34] = Inhibition of quorum sensing system in Pseudomonas aeruginosa PAO1 transfected with lasB-gfp reporter assessed as decrease in GFP fluorescence expression at 0.625 to 10 uM incubated for 16 hrs by microplate reader assay; details: dose 0.625-10 µM
[35] = system: Pseudomonas aeruginosa; assay: Inhibition of iron homeostasis in Pseudomonas aeruginosa PAO1 assessed as decrease in pyochelin production at 1.25 to 20 uM incubated for 24 hrs by fluorescence based microplate reader analysis; format: functional, organism-based; details: dose 1.25-20 µM
[36] = Inhibition of quorum sensing system in Pseudomonas aeruginosa PAO1 assessed as inhibition of pyocyanin production incubated for 24 hrs by optical density based analysis
[37] = system: Pseudomonas aeruginosa; assay: Synergistic antibacterial activity against Pseudomonas aeruginosa clinical isolate 1129 assessed as reduction in bacterial viability at 10 uM incubated for 24 hrs in presence of tobramycin at 1/2 to 1/8 times of MIC; format: functional, organism-based
[38] = system: Pseudomonas aeruginosa; assay: Synergistic antibacterial activity against Pseudomonas aeruginosa PAO1 infected in Caenorhabditis elegans assessed as worm survival rate at 10 uM incubated for 72 hrs in presence of tobramycin by bright-field microscopy relative to control; format: functional
[39] = Inhibition of quorum sensing system in Pseudomonas aeruginosa PAO1 transfected with rhlA-gfp reporter assessed as decrease in GFP fluorescence expression at 0.625 to 10 uM incubated for 16 hrs by microplate reader assay; details: dose 0.625-10 µM
[40] = system: Pseudomonas aeruginosa; assay: Synergistic antibacterial activity against Pseudomonas aeruginosa clinical isolate 1167 assessed as reduction in bacterial viability at 10 uM incubated for 24 hrs in presence of tobramycin at 1/2 to 1/8 times of MIC; format: functional, organism-based
[41] = system: Pseudomonas aeruginosa; assay: Antibacterial activity against Pseudomonas aeruginosa PAO1 infected in Caenorhabditis elegans assessed as increase in worm survival by measuring survival time at 50 uM by bright-field microscopy; format: functional
[42] = system: Pseudomonas aeruginosa; assay: Synergistic antibacterial activity against Pseudomonas aeruginosa PAO1 infected in Caenorhabditis elegans assessed as worm survival rate at 2.5 ug/ml incubated for 72 hrs in presence of compound 16e by bright-field microscopy relative to control; format: functional
[43] = system: Pseudomonas aeruginosa; assay: Antibacterial activity against Pseudomonas aeruginosa PAO1 infected in Caenorhabditis elegans assessed as worm survival rate at 2.5 ug/ml incubated for 60 hrs by bright-field microscopy relative to control; format: functional

## Cc1cc(=O)c(O)c(CNCc2cn(-c3ccc(Oc4ccccc4)cc3)nn2)n1C
[1]
  Activity: 41.1%
[2]
  Activity: Dose-Dependent Effect
[3]
  Activity: Active
[4]
  Kd: 1100 nM
[5]
  inhibition: inactive
[6]
  survival at 10 µM: 35.7%
[7]
  survival at 0.125 µg/mL: 13.1%
[8]
  Activity: Active
[9]
  Activity: Toxic
[10]
  Activity: Non-Toxic
[11]
  Activity: inactive
[12]
  Activity: Dose-Dependent Effect
[13]
  Activity: Dose-Dependent Effect
[14]
  Survival: 30 h
[15]
  Activity: Non-Toxic
[16]
  inhibition: inactive
[17]
  Activity: Dose-Dependent Effect
[18]
  inhibition: 26.7%
[19]
  survival at 50 µM: 82.3%
[20]
  Activity: 22.4
[21]
  inhibition: 30%
[22]
  Activity: Active
[23]
  Activity: Active
[24]
  Activity: ~50%
[25]
  inhibition: 69.9%
[26]
  Activity: 32.2%
[27]
  inhibition: inactive
[28]
  IC50: 3700 nM
[29]
  Activity: 50.9%
[30]
  Activity: Active
[31]
  survival at 50 µM: 87.1%
[32]
  Activity: Active
[33]
  Activity: Active
[34]
  inhibition: Active
[35]
  inhibition: inactive
[36]
  IC50: 2700 nM
[37]
  Activity: Active
[38]
  survival at 10 µM: 46.7%
[39]
  inhibition: inactive
[40]
  Activity: inactive
[41]
  Survival: 36 h

## NC[C@H]1O[C@H](O[C@H]2[C@H](O)[C@@H](O[C@H]3O[C@H](CO)[C@@H](O)[C@H](N)[C@H]3O)[C@H](N)C[C@@H]2N)[C@H](N)C[C@@H]1O [TOBRAMYCIN]
[42]
  survival at 2.5 µg/mL: 46.7%
[43]
  survival at 2.5 µg/mL: 18.1%
